Legend:
[1] = Methylglyoxal (MGO) trapping ability: free MGO concentration by HPLC; format: biochemical; details: for MGO concentration on day 1 (free MGO) / MGO concentration on day 7 (free MGO): compound 1:1 with MGO in PBS pH 7.4, 37° C.; for MGO concentration on day 1 (free MGO): day 1, HPLC; for MGO concentration on day 7 (free MGO): day 7, HPLC
Protocol: The objective of this experimental example was to confirm whether the compound of the present invention has the ability to trap methylglyoxal (MGO) by analyzing the concentration of free methylglyoxal (MGO) by high performance liquid chromatography (HPLC).
Specifically, a mixture was prepared by adding methylglyoxal (MGO) to phosphate buffered saline (PBS, Cat no. 10010023, pH 7.4). […]

[2] = Methylglyoxal (MGO) trapping ability: fluorescence intensity of reaction product; format: biochemical; details: compound 1.0 mM in MGO+PBS pH 7.4, 37° C., 1 day; ex 355 nm / em 460 nm; 10×10^3 or more = ability to trap MGO
Protocol: Methylglyoxal (MGO) is a main precursor of advanced glycation end products that cause complications due to diabetes mellitus. Successful trapping of methylglyoxal (MGO) can inhibit the production of advanced glycation end products. Therefore, the objective of this experimental example was to confirm whether the compound of the present invention has the ability to trap methylglyoxal (MGO), a precursor before the production of advanced glycation end products.
A mixture was prepared by adding methylglyoxal (MGO) to phosphate buffered saline (PBS, Cat no. 10010023, pH 7.4). The mixture (MGO+PBS) was treated with the compound of the above example at a concentration of 1.0 mM and then cultured at 37° C. for 1 day. The fluorescence intensity of the reaction product was measured at an excitation wavelength of 355 nm and an emission wavelength of 460 nm using a VICTOR™X3 multilabel plate reader.
The higher the fluorescence intensity measured from the reaction product, the higher the ability of the compound to trap methylglyoxal. In addition, in this experimental example, when the fluorescence intensity was 10×10^3 or more, it was determined that the compound had the ability to trap methylglyoxal.

Compound | MGO concentration on day 1 (free MGO) [1] | MGO concentration on day 7 (free MGO) [1] | Fluorescence intensity on day 1 (×10^3) [2] | concentration of free methylglyoxal relative to the control group, day 1 ([1]; day 1 after incubation, control group PBS+MGO) | concentration of free methylglyoxal relative to the control group, day 7 ([1]; day 7 after incubation, control group PBS+MGO)
CCCC(=O)OC[C@@H](N)Cc1c[nH]c2ccc(OC(=O)CCC)cc12 [Compound 8, (S)-2-amino-3-(5-(butyryloxy)-1H-indol-3-yl)propyl butyrate] | 501.09 µM | 412.65 µM | 21.74 ± 0.50 ×10^3 |  | 
CCCC(=O)N[C@H](CO)Cc1c[nH]c2ccc(OC(=O)CCC)cc12 [Compound 9, (S)-3-(2-butyramido-3-hydroxypropyl)-1H-indol-5-yl butyrate] | 551.993 µM | 403.462 µM | 0.75 ± 0.30 ×10^3 |  | 
NCCCCNCCCNC(=O)OC[C@@H](N)Cc1c[nH]c2ccc(O)cc12 [Compound 10, (S)-2-amino-3-(5-hydroxy-1H-indol-3-yl)propyl (3-((4-aminobutyl)amino)propyl)carbamate] | 444.11 µM | 269.28 µM | 223.01 ± 3.74 ×10^3 | about 12% | about 38%

From patent publication US20240124399A1, “NOVEL INDOLE DERIVATIVE, AND USE THEREOF FOR TREATING DISEASES RELATED TO ADVANCED GLYCATION END PRODUCTS” (METACEN THERAPEUTICS, priority 2021, published 2024)
